Data taken from patent publication US8003659B2, “Macrocyclic serine protease inhibitors” (Indenix Pharmaceuticals, Inc., priority 2008, dated 2011).

Tests used:
HCV NS3-NS4A protease = target: T1, HCV NS3-NS4A protease (Hepatitis C virus genotype 1b, UniProt P26663); assay: HCV Protease Assay (SensoLyte 620 HCV Protease Assay kit); format: biochemical; conditions: 1.2 nM HCV NS3-NS4A protease, 60 min at room temperature, 5% DMSO
T1 construct: made in house
Procedure: General procedure: Measurement of the inhibitory effect of compounds on HCV protease activity was performed with the SensoLyte™ 620 HCV Protease Assay kit from AnaSpec, Inc. (San Jose, Calif.) under conditions described by the supplier using 1.2 nM HCV NS3-NS4A protease, which was obtained according to Taremi et al. (Protein Science, 1998, 7, 2143-2149). The compounds were tested at a variety of concentrations in assay buffer containing a final DMSO concentration of 5%. Reactions were allowed to proceed for 60 min at room temperature and fluorescence measurements were recorded with a Tecan Infinity Spectrofluorimeter. The IC50 values were determined from the percent inhibition versus concentration data using a sigmoidal non-linear regression analysis based on four parameters with Tecan Magellan software.

[1] = Cytotoxicity evaluation (Cell Titer 96 AQueous One Solution Cell Proliferation Assay); format: cell-based; conditions: human; GS4.1 cells, cellular viability
Procedure: For cytotoxicity evaluation, GS4.1 cells were treated with compounds as described above and cellular viability was monitored using the Cell Titer 96 AQueous One Solution Cell Proliferation Assay (Promega). CC50 values were determined from the % cytotoxicity versus concentration data with Tecan Magellan software as described above.

[2] = test system: Huh-7 cells containing HCV Con1 subgenomic replicon (GS4.1 cells); assay: HCV Replicon Assay (NS4A ELISA); format: cell-based; conditions: Hepatitis C virus, Huh-7, 72 hr, NS4A protein by ELISA
Procedure: General procedure: Huh-7 cells containing HCV Con1 subgenomic replicon (GS4.1 cells) were grown in Dulbecco's Modified Eagle Medium (DMEM) supplemented with 10% fetal bovine serum (FBS), 2 mM L-glutamine, 110 mg/L sodium pyruvate, 1× non-essential amino acids, 100 U/mL penicillin-streptomycin, and 0.5 mg/mL G418 (Invitrogen). For dose-response testing, the cells were seeded in 96-well plates at 7.5×10^3 cells/well in a volume of 50 μL, and incubated at 37° C./5% CO2. Three hours after plating, 50 μL of ten 2-fold serial dilutions of compounds (highest concentration, 75 μM) were added, and cell cultures were incubated at 37° C./5% CO2 in the presence of 0.5% DMSO. Alternatively, compounds were tested at a single concentration of 15 μM. In all cases, Huh-7 cells lacking the HCV replicon served as negative control. The cells were incubated in the presence of compounds for 72 hr after which they were monitored for expression of the NS4A protein by enzyme-linked immunosorbent assay (ELISA). For this, the plates were then fixed for 1 min with acetone/methanol (1:1, v/v), washed twice with phosphate-buffered saline (PBS), 0.1% Tween 20, blocked for 1 hr at room temperature with TNE buffer containing 10% FBS and then incubated for 2 hr at 37° C. with the anti-NS4A mouse monoclonal antibody A-236 (ViroGen) diluted in the same buffer. After washing three times with PBS, 0.1% Tween 20, the cells were incubated 1 hr at 37° C. with anti-mouse immunoglobulin G-peroxidase conjugate in TNE, 10% FBS. After washing as described above, the reaction was developed with O-phenylenediamine (Zymed). The reaction was stopped after 30 min with 2 NH2SO4, and absorbance was read at 492 nm using Sunrise Tecan spectrophotometer. EC50 values were determined from the % inhibition versus concentration data using a sigmoidal non-linear regression analysis based on four parameters with Tecan Magellan software. When screening at a single concentration, the results were expressed as % inhibition at 15 μM.

T1 sequence (P26663 1027-1208): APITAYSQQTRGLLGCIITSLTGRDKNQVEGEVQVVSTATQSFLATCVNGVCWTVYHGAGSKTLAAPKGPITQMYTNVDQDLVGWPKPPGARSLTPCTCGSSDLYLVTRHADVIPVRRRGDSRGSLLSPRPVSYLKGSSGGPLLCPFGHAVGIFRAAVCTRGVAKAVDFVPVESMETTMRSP

Row | SMILES | IC50 (HCV NS3-NS4A protease) | CC50 [1] | EC50 [2]
1 | C#Cc1csc(-c2cc(O[C@H]3C[C@H]4C(=O)N(C)CCCC/C=C\[C@@H]5C[C@@]5(C(=O)NS(=O)(=O)C5(C)CC5)NC(=O)N4C3)c3ccc(OC)c(C)c3n2)n1 [Compound G4, (Z)-(4R,6S,15S,17S)-[17-[7-methoxy-8-methyl-2-(4-ethynylthiazol-2-yl)quinolin-4-yloxy]-13-N-methyl-2,14-dioxo-1,3,13-triazatricyclo-[13.3.0.0]octadec-7-en-4-yl]carbonyl (1-methylcyclopropyl)sulfonamide] | < 1000 nM | 10000 to 75000 nM | < 1000 nM
2 | COc1ccc2c(O[C@H]3C[C@H]4C(=O)N(C)CCCC/C=C\[C@@H]5C[C@@]5(C(=O)NS(=O)(=O)C5CC5)NC(=O)N4C3)cc(-c3nc(C4CCC4)cs3)nc2c1Cl [AC2, (Z)-(4R,6S,15S,17S)-[17-[8-chloro-7-methoxy-2-(4-cyclobutylthiazol-2-yl)quinolin-4-yloxy]-13-N-methyl-2,14-dioxo-1,3,13-triazatricyclo-[13.3.0.0]octadec-7-en-4-yl]carbonyl-(cyclopropyl)sulfonamide] | < 1000 nM | 10000 to 75000 nM | < 1000 nM
3 | COc1ccc2c(O[C@H]3C[C@H]4C(=O)N(C)CCCC/C=C\[C@@H]5C[C@@]5(C(=O)NS(C)(=O)=O)NC(=O)N4C3)cc(-c3nc(C(C)C)cs3)nc2c1C [Compound 63b] | < 1000 nM | > 75000 nM | 1000 to 10000 nM
4 | C#Cc1csc(-c2cc(O[C@H]3C[C@H]4C(=O)N(C)CCCC/C=C\[C@@H]5C[C@@]5(C(=O)NS(=O)(=O)C5CC5)NC(=O)N4C3)c3ccc(OC)c(Cl)c3n2)n1 [Compound G1, (Z)-(4R,6S,15S,17S)-[17-[8-chloro-7-methoxy-2-(4-ethynylthiazol-2-yl)quinolin-4-yloxy]-13-N-methyl-2,14-dioxo-1,3,13-triazatricyclo-[13.3.0.0]octadec-7-en-4-yl]carbonyl(cyclopropyl)sulfonamide] | < 1000 nM | 10000 to 75000 nM | < 1000 nM
5 | COc1ccc2c(O[C@H]3C[C@H]4C(=O)N(C)CCCC/C=C\[C@@H]5C[C@@]5(C(=O)NS(=O)(=O)C5CC5)NC(=O)N4C3)cc(-c3csc(C(F)(F)F)n3)nc2c1Cl [Compound O1, (Z)-(4R,6S,15S,17S)-[17-[8-chloro-7-methoxy-2-(2-trifluoromethylthiazol-4-yl)quinolin-4-yloxy]-13-N-methyl-2,14-dioxo-1,3,13-triazatricyclo-[13.3.0.0]octadec-7-en-4-yl]carbonyl-(cyclopropyl)sulfonamide] | < 1000 nM | 10000 to 75000 nM | < 1000 nM
6 | COc1ccc2c(O[C@H]3C[C@H]4C(=O)N(C)CCCC/C=C\[C@@H]5C[C@@]5(C(=O)NS(=O)(=O)C5CC5)NC(=O)N4C3)cc(-n3ccc(C(C)C)n3)nc2c1C [Compound 91f, (Z)-(4R,6S,15S,17S)-[17-[8-methyl-7-methoxy-2-(3-isopropyl-1H-pyrazol-1-yl)quinolin-4-yloxy]-13-N-methyl-2,14-dioxo-1,3,13-triazatricyclo[13.3.0.0]octadec-7-ene-4-yl]carbonyl(cyclopropyl)sulfonamide] | < 1000 nM | > 75000 nM | < 1000 nM
7 | COc1ccc2c(O[C@H]3C[C@H]4C(=O)N(C)CCCC/C=C\[C@@H]5C[C@@]5(C(=O)NS(=O)(=O)C5(C)CC5)NC(=O)N4C3)cc(-c3cc(C(C)C)on3)nc2c1Cl [Compound 96d, (Z)-(4R,6S,15S,17S)-[17-[8-chloro-7-methoxy-2-(5-isopropylisoxazol-3-yl)quinolin-4-yloxy]-13-N-methyl-2,14-dioxo-1,3,13-triazatricyclo[13.3.0.0]octadec-7-ene-4-yl]carbonyl(1-methylcyclopropyl)sulfonamide] | < 1000 nM | > 75000 nM | 1000 to 10000 nM
8 | COc1ccc2c(O[C@H]3C[C@H]4C(=O)N(C)CCCC/C=C\[C@@H]5C[C@@]5(C(=O)NS(=O)(=O)C5(C)CC5)NC(=O)N4C3)cc(-c3nc(C(C)C)cs3)nc2c1F [Compound 56c, (Z)-(4R,6S,15S,17S)-[17-[8-fluoro-7-methoxy-2-(4-isopropylthiazol-2-yl)quinolin-4-yloxy]-13-N-methyl-2,14-dioxo-1,3,13-triazatricyclo[13.3.0.0]octadec-7-en-4-yl]carbonyl(1-methyl-cyclopropyl)sulfonamide] | < 1000 nM | > 75000 nM | < 1000 nM
9 | C#Cc1csc(-c2cc(O[C@H]3C[C@H]4C(=O)N(C)CCCC/C=C\[C@@H]5C[C@@]5(C(=O)NS(=O)(=O)C5CC5)NC(=O)N4C3)c3ccc(OC)c(C)c3n2)n1 [Compound G3, (Z)-(4R,6S,15S,17S)-[17-[7-methoxy-8-methyl-2-(4-ethynylthiazol-2-yl)quinolin-4-yloxy]-13-N-methyl-2,14-dioxo-1,3,13-triazatricyclo-[13.3.0.0]octadec-7-en-4-yl]carbonyl(cyclopropyl)sulfonamide] | < 1000 nM | 10000 to 75000 nM | < 1000 nM
10 | COc1cc(C)c2nc(-c3nc(C(C)C)cs3)cc(O[C@H]3C[C@H]4C(=O)N(C)CCCC/C=C\[C@@H]5C[C@@]5(C(=O)NS(=O)(=O)C5CC5)NC(=O)N4C3)c2c1 [Compound 62f, (Z)-(4R,6S,15S,17S)-[17-[6-methoxy-8-methyl-2-(4-isopropylthiazol-2-yl)quinolin-4-yloxy]-13-N-methyl-2,14-dioxo-1,3,13-triazatricyclo[13.3.0.0]octadec-7-en-4-yl]carbonyl(cyclopropyl)sulfonamide] | < 1000 nM | > 75000 nM | < 1000 nM
11 | COc1ccc2c(O[C@H]3C[C@H]4C(=O)N(C)CCCC/C=C\[C@@H]5C[C@@]5(C(=O)NS(=O)(=O)C5(C)CC5)NC(=O)N4C3)cc(-c3nc(C4CCC4)cs3)nc2c1Cl [AC3, (Z)-(4R,6S,15S,17S)-[17-[8-chloro-7-methoxy-2-(4-cyclobutylthiazol-2-yl)quinolin-4-yloxy]-13-N-methyl-2,14-dioxo-1,3,13-triazatricyclo-[13.3.0.0]octadec-7-en-4-yl]carbonyl-(1-methylcyclopropyl)sulfonamide] | < 1000 nM | > 75000 nM | < 1000 nM
12 | COc1ccc2c(O[C@H]3C[C@H]4C(=O)N(C)CCCC/C=C\[C@@H]5C[C@@]5(C(=O)NS(=O)(=O)C5CC5)NC(=O)N4C3)cc(-c3csc(C(F)(F)F)n3)nc2c1C [Compound O3, (Z)-(4R,6S,15S,17S)-[17-[7-methoxy-8-methyl-2-(2-trifluoromethylthiazol-4-yl)quinolin-4-yloxy]-13-N-methyl-2,14-dioxo-1,3,13-triazatricyclo-[13.3.0.0]octadec-7-en-4-yl]carbonyl-(cyclopropyl)sulfonamide] | < 1000 nM | 10000 to 75000 nM | < 1000 nM
13 | COc1ccc2c(O[C@H]3C[C@H]4C(=O)N(C)CCCC/C=C\[C@@H]5C[C@@]5(C(=O)NS(=O)(=O)C5CC5)NC(=O)N4C3)cc(-c3nc(C4CC4)cs3)nc2c1Cl [AC1, (Z)-(4R,6S,15S,17S)-[17-[8-chloro-7-methoxy-2-(4-cyclopropylthiazol-2-yl)quinolin-4-yloxy]-13-N-methyl-2,14-dioxo-1,3,13-triazatricyclo-[13.3.0.0]octadec-7-en-4-yl]carbonyl-(cyclopropyl)sulfonamide] | < 1000 nM | 10000 to 75000 nM | < 1000 nM
14 | COc1ccc2c(O[C@H]3C[C@H]4C(=O)N(C)CCCC/C=C\[C@@H]5C[C@@]5(C(=O)NS(=O)(=O)C5(C)CC5)NC(=O)N4C3)cc(-c3csc(C(C)C)n3)nc2c1Cl [Compound 101d, (Z)-(4R,6S,15S,17S)-[17-[8-chloro-7-methoxy-2-(2-isopropythiazol-4-yl)quinolin-4-yloxy]-13-N-methyl-2,14-dioxo-1,3,13-triazatricyclo[13.3.0.0]octadec-7-ene-4-yl]carbonyl(1-methylcyclopropyl)sulfonamide] | < 1000 nM | > 75000 nM | < 1000 nM
